This note sets out measurements from patent publication US9493466B2, “Treatment of cancer with TOR kinase inhibitors” (Signal Pharmaceuticals, LLC, priority 2011, dated 2016).

In one data set the test system is U87MG tumors. As to the kind of experiment: U87MG human glioblastoma xenograft model (Compound 1). The format is in vivo, SCID mice. Conditions: for Tumor growth delay (TGD): to reach 1000 mm^3; for loss of initial body mass: end of first cycle (p<0.01). The protocol:
U87MG Human Glioblastoma Xenograft Model (Compound 1). Efficacy Studies: Groups of female SCID mice bearing U87MG tumors (n=8-10/group) were dosed orally with vehicle or Compound 1 throughout the study, starting when tumor volumes reached approximately 200 mm^3. The twice daily (BID) dose groups were dosed with a 10-hour separation between morning and evening doses. In the positive control group, rapamycin was administered Q3D via intraperitoneal (IP) route. At the end of each study, plasma and/or tumor samples were collected.
Cell Line and Culture. U87MG cell line was obtained from American Tissue Culture Collection (ATCC) (Gaithersberg, Md.) and grown in growth medium containing MEM, 2 mM L-glutamine, 0.1 mM non-essential amino acids and 1 mM sodium pyruvate and 10% fetal bovine serum (FBS). The cells were detached from tissue culture flasks using trypsin-EDTA. After centrifugation, the cell pellets were suspended in phosphate buffered saline (PBS) and counted using a hemocytometer. The final volume was adjusted to 5×10^6 cells/0.1 mL of PBS.
Tumor Cell Inoculation. Mice were anesthetized with inhaled isoflurane and then inoculated with U87MG tumor cells subcutaneously on the right hind leg with 0.1 mL of a single cell suspension in PBS using a sterile 1 mL syringe fitted with a 26 gauge needle. Following inoculation, the mice were returned to microisolator cages
Randomization of Animals. Following inoculation, tumors were allowed to grow to about 200 mm^3 prior to randomization. The typical number of days required for tumors to reach 200 mm^3 was 14-15 days. The tumor of each animal was measured and animals with tumors ranging between 175-250 mm^3 were included in the study. Animals from the pool were then distributed randomly into various cages and the cages were randomly assigned to vehicle, positive control, or test article groups. All of the mice were tagged with metal ear tags on the right ear.
Test Article Preparation and Administration. Suspensions of Compound 1 were prepared in aqueous 0.5% CMC and 0.25% Tween-80. The formulations were homogenized using a Teflon™ pestle and mortar (Potter-Elvehjem tissue grinder). Between the doses, the formulated compound was stored under constant stirring using a magnetic stirrer at 4° C. in the dark. The test article and vehicle were administered by oral gavage. The positive control, rapamycin, was prepared as solution in 2% ethanol, 45% polyethyleneglycol 400, and 53% saline and administered by IP injection. Sterile syringes and gavage needles were used for compound administration. All of the procedures including injections were done in biosafety cabinets disinfected with 70% ethanol prior to use.
Tumor Measurements. Tumor volumes were determined prior to the initiation of treatment and were considered as the starting volumes. Thereafter, tumors were measured twice a week for the duration of the study. The long and short axes of each tumor were measured using a digital caliper in millimeters. Tumor volumes were calculated using the formula: width^2×length/2. The tumor volumes were expressed in cubic millimeters (mm^3).
Tumor Growth Delay (TGD) Calculations. Tumor growth delay is the difference in days for treated versus control tumors to reach a volume of 1000 mm^3. The TGD was calculated from the data plotted in a graph format.
Body Weight Measurements. Initial body weights were recorded prior to the initiation of treatment using a digital scale. The percent body weight change during the course of the study was calculated using initial body weight measurements. Body weights of each animal were measured twice a week at the same time as the tumor measurements. Body weights were measured more frequently if significant decreases were noted during the course of the study.
For orientation: Xenograft models place foreign cells or tissue in a host animal.

The nature of data set [1]: Storage stability of compound-spotted plates (repeat testing in A549). Type of data set: physicochemical. Conditions: DMSO-spotted sealed 384-well plates at −20° C. As for the experimental part: Compound 1 was dissolved in dimethyl sulfoxide (DMSO) to prepare a 10 mM stock solution. A serial titration was performed to produce a working concentration range of […] to 10 mM. Aliquots to produce final concentrations of 1.5 nM to 10 μM were spotted via an acoustic dispenser (EDC ATS-100) into an empty 384-well plate. Compound 1 was spotted in a 10-point serial dilution fashion (3-fold dilution) in duplicate within the plate. The DMSO concentration was kept constant for a final assay concentration of 0.1% DMSO. Plates were replicated for use with different cell lines and testing periods. […] When ready for testing, plates were removed from the freezer, thawed, and unsealed just prior to the addition of the test cells. […] At the time when compound was added (t0), initial cell number was assessed via a viability assay (Cell Titer-Glo) by quantifying the level of luminescence generated by ATP present in viable cells. After 96 hours, cell viability of compound-treated cells was assessed via Cell Titer-Glo and luminescence measurement. […] The compound response against this control cell line was monitored closely to enable comparison of the data generated through the assay period. […] Results were then expressed as a GI50 value. […] In addition, the IC50 value of Compound 1 for each cell line was calculated.

With `CO[C@H]1CC[C@H](N2C(=O)CNc3ncc(-c4ccc(C(C)(C)O)nc4)nc32)CC1` [Compound 1, 7-(6-(2-hydroxypropan-2-yl)pyridin-3-yl)-1-((1r,4r)-4-methoxycyclohexyl)-3,4-dihydropyrazino-[2,3-b]pyrazin-2(1H)-one], the average tumor volume with U87MG tumors (5 mg/kg BID oral, Day 24 (dosing from Day 14)) stood at 149±9 mm^3; with U87MG tumors (5 mg/kg BID oral, Day 31), 208±31 mm^3; with U87MG tumors (10 mg/kg BID oral, Day 24 (dosing from Day 14)), 96±4 mm^3; in the data set on U87MG tumors (10 mg/kg BID oral, Day 31) it was 96±13 mm^3; with U87MG tumors (25 mg/kg Q2D oral, Day 24 (dosing from Day 14)), 101±8 mm^3; in the data set with U87MG tumors (25 mg/kg Q2D oral, Day 31) it was 116±15 mm^3. Moreover, the “tumor volume reduction compared with vehicle control” value was found to be 91% in the data set on U87MG tumors (5 mg/kg BID oral, Day 31); 96% with U87MG tumors (10 mg/kg BID oral, Day 31); 95% with U87MG tumors (25 mg/kg Q2D oral, Day 31). The “change in body weight” value is “No significant change” in the data set on U87MG tumors (5 mg/kg BID, 18 days) and “No statistically significant change” in the data set with U87MG tumors (QD study, 3 weeks, any of the groups). Besides, the results for the “Tumor growth delay (TGD)” value with U87MG tumors (5 mg/kg BID), in the data set on U87MG tumors (10 mg/kg BID) and with U87MG tumors (25 mg/kg Q2D) were 11 days, 20 days and 17 days, respectively. Further, the “loss of initial body mass” value in the data set with U87MG tumors (10 mg/kg BID) and in the data set with U87MG tumors (25 mg/kg Q2D) was “about 10%” throughout. The tumor regression result in the data set with U87MG tumors (5 and 10 mg/kg BID and 25 mg/kg Q2D, persisted until Day 31) was “showed tumor regression”. In the data set on U87MG tumors (QD oral, 3 weeks), the “lowest efficacious dose as determined by 65% tumor volume inhibition” value amounted to 1 mg/kg. For the same compound, the tumor volume reduction entry in the data set on U87MG tumors (all dose levels tested (0.5, 1, 3, 5 mg/kg QD, 3 weeks), Day 34) was “Significant (p<0.001) tumor volume reduction”. For the same compound, the “stable under the storage conditions” value in data set [1] is given as “at least 1 month”.
